Test results as given in PubChem BioAssay (NCI).
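1) Cells in 96-well plates. 2) Compound, 48 h, 5 concentrations. 3) Linear interpolation between surrounding doses. 4) Unreached endpoint = highest concentration. Abbreviation: GI50, concentration required for 50% inhibition of growth. TGI is the concentration that stops growth completely.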

Key:
Experiment in all cases: inhibition of tumour cell growth, NCI panel, 48 h
786-0 renal = test system: 786-0 renal
A498 renal = test system: A498 renal
A549 NSCLC = test system: A549 NSCLC
ACHN renal = test system: ACHN renal
BT-549 breast = test system: BT-549 breast
CAKI-1 renal = test system: CAKI-1 renal
CCRF-CEM leukemia = test system: CCRF-CEM leukemia
COLO 205 colon = test system: COLO 205 colon
DU-145 prostate = test system: DU-145 prostate
EKVX NSCLC = test system: EKVX NSCLC
HCT-116 colon = test system: HCT-116 colon
HCT-15 colon = test system: HCT-15 colon
HL-60(TB) leukemia = test system: HL-60(TB) leukemia
HOP-62 NSCLC = test system: HOP-62 NSCLC
HOP-92 NSCLC = test system: HOP-92 NSCLC
HS 578T breast = test system: HS 578T breast
HT29 colon = test system: HT29 colon
IGROV1 ovarian = test system: IGROV1 ovarian
K-562 leukemia = test system: K-562 leukemia
KM12 colon = test system: KM12 colon
LOX IMVI melanoma = test system: LOX IMVI melanoma
M14 melanoma = test system: M14 melanoma
MALME-3M melanoma = test system: MALME-3M melanoma
MCF7 breast = test system: MCF7 breast
MDA-MB-231 breast = test system: MDA-MB-231 breast
MDA-MB-435 = test system: MDA-MB-435
MOLT-4 leukemia = test system: MOLT-4 leukemia
NCI-H226 lung = test system: NCI-H226 lung
NCI-H23 lung = test system: NCI-H23 lung
NCI-H460 lung = test system: NCI-H460 lung
NCI-H522 lung = test system: NCI-H522 lung
NCI/ADR-RES ovarian = test system: NCI/ADR-RES ovarian
OVCAR-3 ovarian = test system: OVCAR-3 ovarian
OVCAR-4 ovarian = test system: OVCAR-4 ovarian
OVCAR-5 ovarian = test system: OVCAR-5 ovarian
OVCAR-8 ovarian = test system: OVCAR-8 ovarian
PC-3 prostate = test system: PC-3 prostate
RPMI-8226 leukemia = test system: RPMI-8226 leukemia
RXF 393 renal = test system: RXF 393 renal
SF-268 CNS = test system: SF-268 CNS
SF-295 CNS = test system: SF-295 CNS
SF-539 CNS = test system: SF-539 CNS
SK-MEL-2 melanoma = test system: SK-MEL-2 melanoma
SK-MEL-28 melanoma = test system: SK-MEL-28 melanoma
SK-MEL-5 melanoma = test system: SK-MEL-5 melanoma
SK-OV-3 ovarian = test system: SK-OV-3 ovarian
SN12C renal = test system: SN12C renal
SNB-19 CNS = test system: SNB-19 CNS
SNB-75 CNS = test system: SNB-75 CNS
SR leukemia = test system: SR leukemia
SW-620 colon = test system: SW-620 colon
T-47D breast = test system: T-47D breast
TK-10 renal = test system: TK-10 renal
U251 CNS = test system: U251 CNS
UACC-257 melanoma = test system: UACC-257 melanoma
UACC-62 melanoma = test system: UACC-62 melanoma
UO-31 renal = test system: UO-31 renal
HCC-2998 colon = test system: HCC-2998 colon

O=[N+]([O-])C[C@@]12O[C@]3(O)C4C5CC(C6C5C3C61)C42 (stereo partly specified)
TGI (786-0 renal): > 100 µM | TGI (A498 renal): > 100 µM | TGI (A549 NSCLC): > 100 µM | TGI (ACHN renal): > 100 µM | TGI (BT-549 breast): > 100 µM | TGI (CAKI-1 renal): > 100 µM | TGI (CCRF-CEM leukemia): > 100 µM | TGI (COLO 205 colon): > 100 µM | TGI (DU-145 prostate): > 100 µM | TGI (EKVX NSCLC): > 100 µM | TGI (HCT-116 colon): > 100 µM | TGI (HCT-15 colon): > 100 µM | TGI (HL-60(TB) leukemia): > 100 µM | TGI (HOP-62 NSCLC): > 100 µM | TGI (HOP-92 NSCLC): > 100 µM | TGI (HS 578T breast): > 100 µM | TGI (HT29 colon): > 100 µM | TGI (IGROV1 ovarian): > 100 µM | TGI (K-562 leukemia): > 100 µM | TGI (KM12 colon): > 100 µM | TGI (LOX IMVI melanoma): > 100 µM | TGI (M14 melanoma): > 100 µM | TGI (MALME-3M melanoma): > 100 µM | TGI (MCF7 breast): > 100 µM | TGI (MDA-MB-231 breast): > 100 µM | TGI (MDA-MB-435): > 100 µM | TGI (MOLT-4 leukemia): > 100 µM | TGI (NCI-H226 lung): > 100 µM | TGI (NCI-H23 lung): > 100 µM | TGI (NCI-H460 lung): > 100 µM | TGI (NCI-H522 lung): > 100 µM | TGI (NCI/ADR-RES ovarian): > 100 µM | TGI (OVCAR-3 ovarian): > 100 µM | TGI (OVCAR-4 ovarian): > 100 µM | TGI (OVCAR-5 ovarian): > 100 µM | TGI (OVCAR-8 ovarian): > 100 µM | TGI (PC-3 prostate): > 100 µM | TGI (RPMI-8226 leukemia): > 100 µM | TGI (RXF 393 renal): > 100 µM | TGI (SF-268 CNS): > 100 µM | TGI (SF-295 CNS): > 100 µM | TGI (SF-539 CNS): > 100 µM | TGI (SK-MEL-2 melanoma): > 100 µM | TGI (SK-MEL-28 melanoma): > 100 µM | TGI (SK-MEL-5 melanoma): > 100 µM | TGI (SK-OV-3 ovarian): > 100 µM | TGI (SN12C renal): > 100 µM | TGI (SNB-19 CNS): > 100 µM | TGI (SNB-75 CNS): > 100 µM | TGI (SR leukemia): > 100 µM | TGI (SW-620 colon): > 100 µM | TGI (T-47D breast): > 100 µM | TGI (TK-10 renal): > 100 µM | TGI (U251 CNS): > 100 µM | TGI (UACC-257 melanoma): > 100 µM | TGI (UACC-62 melanoma): > 100 µM | TGI (UO-31 renal): > 100 µM

COC(=O)c1ccc2c(c1)nc(NC(=O)c1ccccc1)n2CCCc1ccccc1
GI50 (786-0 renal): 4.77 µM | TGI (786-0 renal): > 100 µM | GI50 (A498 renal): 16 µM | TGI (A498 renal): > 100 µM | GI50 (A549 NSCLC): 3.6 µM | TGI (A549 NSCLC): > 100 µM | GI50 (ACHN renal): 3.75 µM | TGI (ACHN renal): > 100 µM | GI50 (BT-549 breast): 3.33 µM | TGI (BT-549 breast): > 100 µM | GI50 (CAKI-1 renal): 3.57 µM | TGI (CAKI-1 renal): > 100 µM | GI50 (CCRF-CEM leukemia): 1.86 µM | TGI (CCRF-CEM leukemia): > 100 µM | GI50 (COLO 205 colon): 3.89 µM | TGI (COLO 205 colon): > 100 µM | GI50 (DU-145 prostate): 11.5 µM | TGI (DU-145 prostate): > 100 µM | GI50 (HCC-2998 colon): 30.6 µM | TGI (HCC-2998 colon): > 100 µM | GI50 (HCT-116 colon): 3.06 µM | TGI (HCT-116 colon): > 100 µM | GI50 (HCT-15 colon): 1.89 µM | TGI (HCT-15 colon): > 100 µM | GI50 (HL-60(TB) leukemia): 4.5 µM | TGI (HL-60(TB) leukemia): > 100 µM | GI50 (HOP-62 NSCLC): 5.03 µM | TGI (HOP-62 NSCLC): > 100 µM | GI50 (HOP-92 NSCLC): 6 µM | TGI (HOP-92 NSCLC): > 100 µM | GI50 (HS 578T breast): 30.2 µM | TGI (HS 578T breast): > 100 µM | GI50 (HT29 colon): 6.92 µM | TGI (HT29 colon): > 100 µM | GI50 (IGROV1 ovarian): 5.01 µM | TGI (IGROV1 ovarian): > 100 µM | GI50 (K-562 leukemia): 3.26 µM | TGI (K-562 leukemia): > 100 µM | GI50 (KM12 colon): 4.5 µM | TGI (KM12 colon): > 100 µM | GI50 (LOX IMVI melanoma): 2.63 µM | TGI (LOX IMVI melanoma): > 100 µM | GI50 (M14 melanoma): 2.28 µM | TGI (M14 melanoma): > 100 µM | GI50 (MALME-3M melanoma): 5.73 µM | TGI (MALME-3M melanoma): > 100 µM | GI50 (MCF7 breast): 1.78 µM | TGI (MCF7 breast): > 100 µM | GI50 (MDA-MB-231 breast): 6.26 µM | TGI (MDA-MB-231 breast): > 100 µM | GI50 (MDA-MB-435): 3.4 µM | TGI (MDA-MB-435): > 100 µM | GI50 (MOLT-4 leukemia): 2.78 µM | TGI (MOLT-4 leukemia): > 100 µM | GI50 (NCI-H226 lung): 11.2 µM | TGI (NCI-H226 lung): > 100 µM | GI50 (NCI-H23 lung): 5.26 µM | TGI (NCI-H23 lung): > 100 µM | GI50 (NCI-H460 lung): 1.22 µM | TGI (NCI-H460 lung): > 100 µM | GI50 (NCI-H522 lung): 3.58 µM | TGI (NCI-H522 lung): 99.3 µM | GI50 (NCI/ADR-RES ovarian): 4.1 µM | TGI (NCI/ADR-RES ovarian): > 100 µM | GI50 (OVCAR-3 ovarian): 7.29 µM | TGI (OVCAR-3 ovarian): > 100 µM | GI50 (OVCAR-4 ovarian): 2.93 µM | TGI (OVCAR-4 ovarian): > 100 µM | GI50 (OVCAR-5 ovarian): 22.6 µM | TGI (OVCAR-5 ovarian): > 100 µM | GI50 (OVCAR-8 ovarian): 4.79 µM | TGI (OVCAR-8 ovarian): > 100 µM | GI50 (PC-3 prostate): 4.07 µM | TGI (PC-3 prostate): > 100 µM | GI50 (RPMI-8226 leukemia): 5.31 µM | TGI (RPMI-8226 leukemia): > 100 µM | GI50 (RXF 393 renal): 16.3 µM | TGI (RXF 393 renal): > 100 µM | GI50 (SF-268 CNS): 3.93 µM | TGI (SF-268 CNS): > 100 µM | GI50 (SF-295 CNS): 3.62 µM | TGI (SF-295 CNS): > 100 µM | GI50 (SF-539 CNS): 3.8 µM | TGI (SF-539 CNS): > 100 µM | GI50 (SK-MEL-2 melanoma): 5.58 µM | TGI (SK-MEL-2 melanoma): > 100 µM | GI50 (SK-MEL-28 melanoma): 3.79 µM | TGI (SK-MEL-28 melanoma): > 100 µM | GI50 (SK-MEL-5 melanoma): 2.13 µM | TGI (SK-MEL-5 melanoma): 5.87 µM | GI50 (SK-OV-3 ovarian): 7.63 µM | TGI (SK-OV-3 ovarian): > 100 µM | GI50 (SN12C renal): 17.6 µM | TGI (SN12C renal): > 100 µM | GI50 (SNB-19 CNS): 4.25 µM | TGI (SNB-19 CNS): > 100 µM | GI50 (SNB-75 CNS): 18.6 µM | TGI (SNB-75 CNS): > 100 µM | GI50 (SR leukemia): 2.54 µM | TGI (SR leukemia): > 100 µM | GI50 (SW-620 colon): 4.03 µM | TGI (SW-620 colon): > 100 µM | GI50 (T-47D breast): 4.35 µM | TGI (T-47D breast): > 100 µM | GI50 (TK-10 renal): 8.86 µM | TGI (TK-10 renal): > 100 µM | GI50 (U251 CNS): 2.73 µM | TGI (U251 CNS): > 100 µM | GI50 (UACC-257 melanoma): 6.85 µM | TGI (UACC-257 melanoma): > 100 µM | GI50 (UACC-62 melanoma): 2.49 µM | TGI (UACC-62 melanoma): > 27 µM | GI50 (UO-31 renal): 4.07 µM | TGI (UO-31 renal): > 100 µM
